Measurements as given in PubChem BioAssay AID651961 (The Scripps Research Institute Molecular Screening Center, 2012).
Active and inactive are the calls of the source. No rule for the calls is given here.

The compounds below were run on BLA reporter cell line, FRET fluorescence counterscreen (assay: BLA enzyme inhibitors in reporter cells – cell-based, FRET fluorescence, dose response, counter-screen for NOD2-RIPK2 interaction inhibitor project, late-stage follow-up (AID 651961)).

Compound | IC50
O=S(=O)(c1ccc(F)cc1)N1CCCCCC1 | > 49.8 µM (inactive)
COc1ccc(C(C[N+](=O)[O-])n2nc(C)cc2C)cc1 (stereo unspecified) | > 49.8 µM (inactive)
Cc1cc(S(=O)(=O)N2CCCCCC2)ccc1F | > 49.8 µM (inactive)
Cc1ccc(C(C[N+](=O)[O-])n2nc(C)cc2C)cc1 (stereo unspecified) | > 49.8 µM (inactive)
O=[N+]([O-])c1cc(S(=O)(=O)N2CCCCCC2)ccc1F | > 49.8 µM (inactive)
Cc1nc([N+](=O)[O-])c(Br)n1Cc1ccccc1 | > 49.8 µM (inactive)
O=S(=O)(c1ccccc1)N1CCCCCC1 | > 49.8 µM (inactive)
Cc1ccc(S(=O)(=O)N2CCCCCC2)cc1[N+](=O)[O-] | > 49.8 µM (inactive)
Cc1ncc([N+](=O)[O-])n1Cc1ccc(Cl)c(Cl)c1 | > 49.8 µM (inactive)
O=[N+]([O-])c1cccc(S(=O)(=O)N2CCCCCC2)c1 | > 49.8 µM (inactive)
Cc1nc([N+](=O)[O-])c(Br)n1Cc1ccc(Cl)c(Cl)c1 | > 49.8 µM (inactive)
